Columns and labels:
[1] = Single dose oral pharmacokinetic study; format: in vivo; conditions: mouse, Mice oral PK @30 mg/kg, plasma, vehicle 10% Solutol+20% PEG; for AUC(0-t): read-out: AUC0-t; for Cmax: read-out: Cmax
Procedure: The test item was administered through oral route to animals (rat/mice) at 30 mg/kg dose in a suitable vehicle (10% Solutol+20% PEG) at 10 ml/kg dose volume. Blood samples (˜50 μL at each time point) were collected from retro-orbital plexus using K3 EDTA as anticoagulant in eppendorf tubes at defined time intervals 30 minutes, 1 hour, 2 hour, 4 hour, 8 hour, 24 hour & 48 hour under light ether anaesthesia. The samples were centrifuged at 3500×g to separate plasma and stored at −80° C. until analysis. Plasma 25 μl for Mice were processed as per described in sample preparation.
Standard solutions of the test compound 1 mg/mL solutions were prepared in DMSO and further dilutions were made in methanol. […] To the test compound plasma extraction was carried out using Acetonitrile precipitation. After reconstitution with solvent (50% Acetonitrile in Buffer) samples were analyzed by LCMSMS to get the concentrations to calculate PK Parameters.

[2] = Cyto-toxicity (MTT assay); format: cell-based
Procedure: On day 1 calculate the number of cells required for the assay and seed 3×10^4 cells in 200 μl per well. Weigh the compound and dissolve it in DMSO to get 10 mM stock which is further diluted to 3 mM and 1 mM. […] Add DMSO to controls in a way to obtain final concentration of solvent that is not greater than 1%. Incubate for 4 days in 5% CO2 incubator at 37° C. On day 4, 100 μl of medium was removed from each well without disturbing the cells. Add 10 μl of MTT reagent and incubate for 4 hours at 5% CO2 incubator at 37° C. for formation of crystals. Add 200 μl of 0.1N acidic isopropanol to dissolve the crystals and read the plate at 590 nm. The values are mentioned in below Table-3 and Table-3A.

| Compound | AUC(0-t) [1] [µg·h/mL] | Cmax [1] [ng/mL] | viability at 4 days, 0.01 µM [2] [%] | viability at 4 days, 0.1 µM [2] [%] | viability at 4 days, 1 µM [2] [%] | viability at 4 days, 0.001 µM [2] [%] | viability at 4 days, 0.003 µM [2] [%] |
| --- | --- | --- | --- | --- | --- | --- | --- |
| CC(C)C1=C2[C@H]3CC[C@@H]4[C@@]5(C)CC[C@H](OC(=O)[C@H]6C[C@@H](C(=O)O)C6(C)C)C(C)(C)[C@@H]5CC[C@@]4(C)[C@]3(C)CC[C@@]2(NC(=O)C(C)(C)NC(=O)c2ccc3[nH]c(-c4cnccn4)nc3c2)CC1=O [Example 15, (1R,3S)-3-((((3aR,5aR,5bR,7aR,9S,11aR,11bR,13aS)-1-isopropyl-5a,5b,8,8,11a-pentamethyl-3a-(2-methyl-2-(2-(pyrazin-2-yl)-1H-benzo[d]imidazole-5-carboxamido)propanamido)-2-oxo-3,3a,4,5,5a,5b,6,7,7a,8,9,10,11,11a,11b,12,13,13a-octadecahydro-2H-cyclopenta[a]chrysen-9-yl)oxy)carbonyl)-2,2-dimethylcyclobutane-1-carboxylic acid] | 141 | 12800 | 44 | 8 | 2 |  |  |
| Cc1ccc(C(=O)NC(C)(C)C(=O)N[C@@]23CC[C@]4(C)[C@H](CC[C@@H]5[C@@]6(C)CC[C@H](OC(=O)[C@H]7C[C@@H](C(=O)O)C7(C)C)C(C)(C)[C@@H]6CC[C@]54C)C2=C(C(C)C)C(=O)C3)cn1 [Example 61, (1R,3S)-3-((((3aR,5aR,5bR,7aR,9S,11aR,11bR,13aS)-1-isopropyl-5a,5b,8,8,11a-pentamethyl-3a-(2-methyl-2-(6-methylnicotinamido)propanamido)-2-oxo-3,3a,4,5,5a,5b,6,7,7a,8,9,10,11,11a,11b,12,13,13a-octadecahydro-2H-cyclopenta[a]chrysen-9-yl)oxy)carbonyl)-2,2-dimethylcyclobutane-1-carboxylic acid] | 615 | 45700 | 88 | 42 | 2 |  |  |
| CC(C)C1=C2[C@H]3CC[C@@H]4[C@@]5(C)CC[C@H](OC(=O)[C@@H]6C[C@H](C(=O)O)C6(C)C)C(C)(C)[C@@H]5CC[C@@]4(C)[C@]3(C)CC[C@@]2(NC(=O)C(C)(C)NC(=O)c2ccc(Cl)cc2)CC1=O [Example 21, (1S,3R)-3-((((3aR,5aR,5bR,7aR,9S,11aR,11bR,13aS)-3a-(2-(4-chlorobenzamido)-2-methylpropanamido)-1-isopropyl-5a,5b,8,8,11a-pentamethyl-2-oxo-3,3a,4,5,5a,5b,6,7,7a,8,9,10,11,11a,11b,12,13,13a-octadecahydro-2H-cyclopenta[a]chrysen-9-yl)oxy)carbonyl)-2,2-dimethylcyclobutane-1-carboxylic acid] | 191 | 16000 | 36 | 7 | 6 |  |  |
| Cc1cn(-c2ccc(C(=O)NC(C)(C)C(=O)N[C@@]34CC[C@]5(C)[C@H](CC[C@@H]6[C@@]7(C)CC[C@H](OC(=O)[C@H]8C[C@@H](C(=O)O)C8(C)C)C(C)(C)[C@@H]7CC[C@]65C)C3=C(C(C)C)C(=O)C4)cc2)cn1 [Example 20, (1R,3S)-3-((((3aR,5aR,5bR,7aR,9S,11aR,11bR,13aS)-1-isopropyl-5a,5b,8,8,11a-pentamethyl-3a-(2-methyl-2-(4-(4-methyl-1H-imidazol-1-yl)benz amido)propanamido)-2-oxo-3,3a,4,5,5a,5b,6,7,7a,8,9,10,11,11a,11b,12,13,13a-octadeca hydro-2H-cyclopenta[a]chrysen-9-yl)oxy)carbonyl)-2,2-dimethylcyclobutane-1-carboxylic acid] | 236 | 19000 | 40 |  |  | 91 | 85 |
| CC(C)C1=C2[C@H]3CC[C@@H]4[C@@]5(C)CC[C@H](OC(=O)[C@H]6C[C@@H](C(=O)O)C6(C)C)C(C)(C)[C@@H]5CC[C@@]4(C)[C@]3(C)CC[C@@]2(NC(=O)C(C)(C)NC(=O)c2ccoc2)CC1=O [Example 24, (1R,3S)-3-((((3aR,5aR,5bR,7aR,9S,11aR,11bR,13aS)-3a-(2-(furan-3-carboxamido)-2-methylpropanamido)-1-isopropyl-5a,5b,8,8,11a-pentamethyl-2-oxo-3,3a,4,5,5a,5b,6,7,7a,8,9,10,11,11a,11b,12,13,13a-octadecahydro-2H-cyclopenta[a]chrysen-9-yl)oxy)carbonyl)-2,2-dimethylcyclobutane-1-carboxylic acid] | 428 | 29600 | 69 | 21 | 6 |  |  |
| CC(C)C1=C2[C@H]3CC[C@@H]4[C@@]5(C)CC[C@H](OC(=O)[C@H]6C[C@@H](C(=O)O)C6(C)C)C(C)(C)[C@@H]5CC[C@@]4(C)[C@]3(C)CC[C@@]2(NC(=O)C(C)(C)NC(=O)Cc2ccc(Cl)cc2)CC1=O [Example 53, (1R,3S)-3-((((3aR,5aR,5bR,7aR,9S,11aR,11bR,13aS)-3a-(2-(2-(4-chlorophenyl)acetamido)-2-methylpropanamido)-1-isopropyl-5a,5b,8,8,11a-pentamethyl-2-oxo-3,3a,4,5,5a,5b,6,7,7a,8,9,10,11,11a,11b,12,13,13a-octadecahydro-2H-cyclopenta[a]chrysen-9-yl)oxy)carbonyl)-2,2-dimethylcyclobutane-1-carboxylic acid] | 57.8 | 9750 |  |  |  |  |  |
| CC(C)C1=C2[C@H]3CC[C@@H]4[C@@]5(C)CC[C@H](OC(=O)[C@H]6C[C@@H](C(=O)O)C6(C)C)C(C)(C)[C@@H]5CC[C@@]4(C)[C@]3(C)CC[C@@]2(NC(=O)C(C)(C)NC(=O)c2cnn3cccnc23)CC1=O [Example 54, (1R,3S)-3-((((3aR,5aR,5bR,7aR,9S,11aR,11bR,13aS)-1-isopropyl-5a,5b,8,8,11a-pentamethyl-3a-(2-methyl-2-(pyrazolo[1,5-a]pyrimidine-3-carboxamido)propanamido)-2-oxo-3,3a,4,5,5a,5b,6,7,7a,8,9,10,11,11a,11b,12,13,13a-octadecahydro-2H-cyclopenta[a]chrysen-9-yl)oxy)carbonyl)-2,2-dimethylcyclobutane-1-carboxylic acid] | 402 | 29200 |  |  |  |  |  |
| CC(C)C1=C2[C@H]3CC[C@@H]4[C@@]5(C)CC[C@H](OC(=O)[C@H]6C[C@@H](C(=O)O)C6(C)C)C(C)(C)[C@@H]5CC[C@@]4(C)[C@]3(C)CC[C@@]2(NC(=O)C2(NC(=O)c3cccnc3N3CCOCC3)CCC2)CC1=O [Example 45, (1R,3S)-3-((((3aR,5aR,5bR,7aR,9S,11aR,11bR,13aS)-1-isopropyl-5a,5b,8,8,11a-pentamethyl-3a-(1-(2-morpholinonicotinamido)cyclobutane-1-carboxamido)-2-oxo-3,3a,4,5,5a,5b,6,7,7a,8,9,10,11,11a,11b,12,13,13a-octadecahydro-2H-cyclopenta[a]chrysen-9-yl)oxy)carbonyl)-2,2-dimethylcyclobutane-1-carboxylic acid] | 214 | 21200 |  |  |  |  |  |

Source: patent publication US20170008921A1, “C-3 NOVEL TRITERPENONE WITH C-28 REVERSE AMIDE DERIVATIVES AS HIV INHIBITORS” (HETERO RESEARCH FOUNDATION, priority 2015, published 2017)
